Bridges are numbered along the chain shown (N, C = ends).
Key:
Assay type in all cases: cell-based
[1] = tested on: IMR90 human fetal lung fibroblasts; experiment: Fibrosis assay: active TGF-β levels in TGF-β treated fibroblasts (ELISA); details: for Fibrosis (% inhib.): % inhibition relative to positive control; for inhibition of fibrosis (active TGF-β, in words): 10 ng/mL peptide, 48 hours, compared to +TGFβ1 control
Protocol: Compounds 132, 133, 135, 150, 152, 157-161, 265-269, 275, 277, and 278 were evaluated for their ability to inhibit fibrosis. IMR90 human fetal lung fibroblasts were obtained from ATCC and maintained in DMEM supplemented with 10% fetal bovine serum. In order to examine the effect of peptides on myofibroblast differentiation, 80% confluent cultures were serum starved overnight prior to addition of TGF-β (2 ng/mL, R&D Systems). Cells were treated with TGF-β for 24 hours prior to addition of peptides (10 ng/mL). 48 hours after addition of peptides, culture supernatants were collected and levels of active TGF-β measured using commercially available TGF-β ELISA (Quantikine, R&D Systems).
Values are the Mean and SDM n=3 replicates. *p<0.05, **p<0.01, ***p<0.001 when compared to the +TGFβ1 control. In FIG. 47, where bars are labeled with two compound numbers (“133/150” and “135/152”) this means that the data were pooled for the indicated compounds, i.e., for the non-acetylated and acetylated versions of the indicated peptides.

[2] = Function blocking score: total percent inhibition over migration, invasion, inflammation and fibrosis assays divided by number of assays; details: total percent inhibition for all assays tested divided by number of assays
Protocol: As documented in the Examples hereinabove, a variety of cyclized peptides were produced that contained the HA-binding domain 1 (HABD1), HA-binding domain 2 (HABD2), or both HABD1 and HABD2. These peptides were evaluated for helicity, direct HA binding and in a number of cell-based bioassays (effects on migration, invasion, NFkB activation, and TGFβ1 production) that are relevant to inflammation and fibrosis. The relationships amongst helicity, HA-binding, and biofunction were evaluated. Peptides were divided into three groups for this analysis: (1) peptides containing HABD1 (“HABD1”); (2) peptides containing HABD2 (“HABD2”); and peptides containing most or all of HABD1 and all of HABD2 (“HABD1+HABD2”). R^2 values were calculated to quantify the relationships between helicity, HA-binding, and biofunction were evaluated.
The results of this analysis for the HABD1 peptides are shown below in Tables 15 and 16. Table 16 provides a function blocking scores for each of the tested peptides and provides R^2 values showing the relationship between HA binding and helicity (“HA binding vs. CD”), HA binding and function-blocking score (“HA binding vs. FBS”) and helicity vs. function-blocking score (“CD vs. FBS”). The same type of summaries are provided for the HABD2 peptides in Tables 17 and 18 below, and for the HABD1+HABD2 peptides in Tables 19 and 20 below.
Function blocking scores were calculated as the total percent inhibition achieved by the peptide for all assays the peptides were tested in, divided by the number of assays. Assays included migration, invasion, inflammation and fibrosis assays. Not all peptides were tested all of the assays. All peptides were included for deriving R^2 values (Pearson's formula).

[3] = tested on: RHAMM-overexpressing (LR21) cells; experiment: Cell invasion assay (Boyden chamber with MATRIGEL, Chemicon ECM555); details: for Invasion (% inhib.): % inhibition relative to positive control, 10 ng/mL of peptide; for inhibition of cellular invasion (in words): 10 ng/mL peptide, 20 hours, compared to 30% serum control
Method in brief: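 Serum-starved RHAMM-overexpressing LR21 cells (7.5×10^4) placed in upper Boyden chamber over MATRIGEL-coated filter, with or without 10 ng/mL peptide; 30% FBS/DMEM chemoattractant below. Invaded cells quantified after 20 h by CyQUANT GR fluorescence (480/520 nm); mean ± SD, n=3, versus 30% serum control.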

Substance	Fibrosis (% inhib.) [1]	Function blocking score (FBS) [2]	Invasion (% inhib.) [3]	inhibition of cellular invasion (in words) [3]	inhibition of fibrosis (active TGF-β, in words) [1]
Ac-(cyclo-28-32)-NLKQKIKHVVKLKDENSQLKSEVSKLR[EQLVK]RKQN-NH2 (Ac-NLKQKIKHVVKLKDENSQLKSEVSKLREQLVKRKQN-NH2; lactam 28-32; SMILES CC[C@H](C)[C@H](NC(=O)[C@H](CCCCN)NC(=O)[C@H](CCC(N)=O)NC(=O)[C@H](CCCCN)NC(=O)[C@H](CC(C)C)NC(=O)[C@H](CC(N)=O)NC(C)=O)C(=O)N[C@@H](CCCCN)C(=O)N[C@@H](Cc1c[nH]cn1)C(=O)N[C@H](C(=O)N[C@H](C(=O)N[C@@H](CCCCN)C(=O)N[C@@H](CC(C)C)C(=O)N[C@@H](CCCCN)C(=O)N[C@@H](CC(=O)O)C(=O)N[C@@H](CCC(=O)O)C(=O)N[C@@H](CC(N)=O)C(=O)N[C@@H](CO)C(=O)N[C@@H](CCC(N)=O)C(=O)N[C@@H](CC(C)C)C(=O)N[C@@H](CCCCN)C(=O)N[C@@H](CO)C(=O)N[C@@H](CCC(=O)O)C(=O)N[C@H](C(=O)N[C@@H](CO)C(=O)N[C@@H](CCCCN)C(=O)N[C@@H](CC(C)C)C(=O)N[C@@H](CCCNC(=N)N)C(=O)N[C@H]1CCC(=O)NCCCC[C@@H](C(=O)N[C@@H](CCCNC(=N)N)C(=O)N[C@@H](CCCCN)C(=O)N[C@@H](CCC(N)=O)C(=O)N[C@@H](CC(N)=O)C(N)=O)NC(=O)[C@H](C(C)C)NC(=O)[C@H](CC(C)C)NC(=O)[C@H](CCC(N)=O)NC1=O)C(C)C)C(C)C)C(C)C) [Compound 277]	52 % inhib.	29	0 % inhib.		
Ac-(cyclo-11-15, cyclo-16-20)-KIKHVVKLKD[ENSQK][ESEVK]KLRSQLVKRIK-NH2 [Compound 267]	0 % inhib.	0	0 % inhib.		
Ac-VSKLRSQLVKRKQN-NH2 [Compound 132]	0 % inhib.	17	66 % inhib.	significantly inhibited cellular invasion	
Ac-(cyclo-10-14, cyclo-15-19)-KIKHVVKLK[EENSK][EKSEK]SKLRSQLVKRK-NH2 (Ac-KIKHVVKLKEENSKEKSEKSKLRSQLVKRK-NH2; lactam 10-14, 15-19; SMILES CC[C@H](C)[C@H](NC(=O)[C@H](CCCCN)NC(C)=O)C(=O)N[C@@H](CCCCN)C(=O)N[C@@H](Cc1c[nH]cn1)C(=O)N[C@H](C(=O)N[C@H](C(=O)N[C@@H](CCCCN)C(=O)N[C@@H](CC(C)C)C(=O)N[C@@H](CCCCN)C(=O)N[C@H]1CCC(=O)NCCCC[C@@H](C(=O)N[C@H]2CCC(=O)NCCCC[C@@H](C(=O)N[C@@H](CO)C(=O)N[C@@H](CCCCN)C(=O)N[C@@H](CC(C)C)C(=O)N[C@@H](CCCNC(=N)N)C(=O)N[C@@H](CO)C(=O)N[C@@H](CCC(N)=O)C(=O)N[C@@H](CC(C)C)C(=O)N[C@H](C(=O)N[C@@H](CCCCN)C(=O)N[C@@H](CCCNC(=N)N)C(=O)N[C@@H](CCCCN)C(N)=O)C(C)C)NC(=O)[C@H](CCC(=O)O)NC(=O)[C@H](CO)NC(=O)[C@H](CCCCN)NC2=O)NC(=O)[C@H](CO)NC(=O)[C@H](CC(N)=O)NC(=O)[C@H](CCC(=O)O)NC1=O)C(C)C)C(C)C) [Compound 266]	24 % inhib.	28	50 % inhib.	significantly inhibited cellular invasion	strong trend towards inhibition of fibrosis
Ac-(cyclo-4,8)-VSK[ERSQK]VKRKQN-NH2 (Ac-VSKERSQKVKRKQN-NH2; lactam 4-8; SMILES CC(=O)N[C@H](C(=O)N[C@@H](CO)C(=O)N[C@@H](CCCCN)C(=O)N[C@H]1CCC(=O)NCCCC[C@@H](C(=O)N[C@H](C(=O)N[C@@H](CCCCN)C(=O)N[C@@H](CCCNC(=N)N)C(=O)N[C@@H](CCCCN)C(=O)N[C@@H](CCC(N)=O)C(=O)N[C@@H](CC(N)=O)C(N)=O)C(C)C)NC(=O)[C@H](CCC(N)=O)NC(=O)[C@H](CO)NC(=O)[C@H](CCCNC(=N)N)NC1=O)C(C)C) [Compound 150]	31 % inhib.	27	79 % inhib.	significantly inhibited cellular invasion	
Ac-(cyclo-10-14, cyclo-15-19)-KIKHVVKLK[KENSE][EKSEK]SKLRSQLVKRK-NH2 [Compound 269]	0 % inhib.	13	0 % inhib.		
Ac-(cyclo-7-11, cyclo-28-32)-NLKQKI[EHVVK]LKDENSQLKSEVSKLR[EQLVK]RKQN-NH2 (Ac-NLKQKIEHVVKLKDENSQLKSEVSKLREQLVKRKQN-NH2; lactam 7-11, 28-32; SMILES CC[C@H](C)[C@H](NC(=O)[C@H](CCCCN)NC(=O)[C@H](CCC(N)=O)NC(=O)[C@H](CCCCN)NC(=O)[C@H](CC(C)C)NC(=O)[C@H](CC(N)=O)NC(C)=O)C(=O)N[C@H]1CCC(=O)NCCCC[C@@H](C(=O)N[C@@H](CC(C)C)C(=O)N[C@@H](CCCCN)C(=O)N[C@@H](CC(=O)O)C(=O)N[C@@H](CCC(=O)O)C(=O)N[C@@H](CC(N)=O)C(=O)N[C@@H](CO)C(=O)N[C@@H](CCC(N)=O)C(=O)N[C@@H](CC(C)C)C(=O)N[C@@H](CCCCN)C(=O)N[C@@H](CO)C(=O)N[C@@H](CCC(=O)O)C(=O)N[C@H](C(=O)N[C@@H](CO)C(=O)N[C@@H](CCCCN)C(=O)N[C@@H](CC(C)C)C(=O)N[C@@H](CCCNC(=N)N)C(=O)N[C@H]2CCC(=O)NCCCC[C@@H](C(=O)N[C@@H](CCCNC(=N)N)C(=O)N[C@@H](CCCCN)C(=O)N[C@@H](CCC(N)=O)C(=O)N[C@@H](CC(N)=O)C(N)=O)NC(=O)[C@H](C(C)C)NC(=O)[C@H](CC(C)C)NC(=O)[C@H](CCC(N)=O)NC2=O)C(C)C)NC(=O)[C@H](C(C)C)NC(=O)[C@H](C(C)C)NC(=O)[C@H](Cc2c[nH]cn2)NC1=O) [Compound 278]	0 % inhib.	12	0 % inhib.		strong trend towards inhibition of fibrosis

Reference: US10562935B2, “Stapled peptides and uses thereof” (London Health Sciences Centre Research Inc., priority 2015, dated 2020)
